Experimental data reported in patent publication EP1325735A2, “Use of L-arginine derivatives as photo-protecting agents and enhancing melanic response in cosmetic compositions” (EXSYMOL S.A.M., priority 2002, dated 2003).
Square brackets hold non-standard residues; d marks the D form. Peptide text beside a SMILES is read from it. ξ: configuration not given here. ξM = CSCCC(N)C(=O)O

Key:
[1] = Hydroxyl radical OH• scavenging, deoxyribose protection test (Halliwell method); settings: rate constant of S on OH•; mean (± SD) of 3 independent experiments
Source text: Le test, réalisé selon la méthode décrite par B. Halliwell et coll. […] Le pouvoir protecteur est déduit de la comparaison des cinétiques de réaction, exprimées par une constante de vitesse de S sur OH• (piégeage de OH•).
Les constantes de vitesse correspondent à la valeur moyenne (± D.S.) calculée à partir de 3 expériences indépendantes

[2] = system: co-culture in vitro de mélanocytes et de kératinocytes; assay: In vitro melanocyte/keratinocyte co-culture model of the "mélano-épidermique" unit: melanic response after UV; assay type: cell-based; design: unit not given here; settings: for réponse mélanique: co-culture + MdC "ARG-free" irradiée par UVB: ARG-free medium (insufficient physiological arginine); for réponse mélanique: co-culture + MdC "ARG-free" irradiée par UVB / réponse mélanique: co-culture + MdC "ARG = 84mg/L" irradiée par UVB: UVB irradiated; for réponse mélanique: co-culture + MdC "ARG = 84mg/L" irradiée par UVB / réponse mélanique: co-culture + MdC "ARG = 84mg/L" sans irradiation: standard medium with supra-physiological arginine; for réponse mélanique: co-culture + MdC "ARG = 84mg/L" sans irradiation: no irradiation
Source text: Test 2 : démonstration de l'effet des dérivés d'arginine sur l'unité "mélano-épidermique" et la réponse mélanique
Nous avons mis au point un modèle expérimental reproduisant l'unité "mélano-épidermique", et qui permet de mettre en évidence les effets d'un apport exogène de dérivés d'arginine sur la réponse mélanique à la suite de rayonnements U.V. (effet direct sur les mélanocytes et indirect via la "communication cellulaire" entre kératinocytes et mélanocytes). Il s'agit d'un modèle de co-culture in vitro de mélanocytes et de kératinocytes (voir représentation schématique du modèle), possédant un milieu de culture (MdC) particulier. [drawing]
Le fond poreux de la chambre supérieure permet le passage, d'un compartiment à l'autre, des facteurs endogènes sécrétés par les cellules (NO) et la substance (S).

SMILES | constante de vitesse de piégeage [1] | réponse mélanique: co-culture + MdC "ARG-free" irradiée par UVB ([2]; substance 0,12 mM) | réponse mélanique: co-culture + MdC "ARG = 84mg/L" irradiée par UVB ([2]; substance 0,12 mM) | réponse mélanique: co-culture + MdC "ARG = 84mg/L" sans irradiation ([2]; substance 0,12 mM) | réponse mélanique: co-culture + MdC "ARG-free" irradiée par UVB ([2]; substance 0,24 mM) | réponse mélanique: co-culture + MdC "ARG = 84mg/L" irradiée par UVB ([2]; substance 0,24 mM) | réponse mélanique: co-culture + MdC "ARG = 84mg/L" sans irradiation ([2]; substance 0,24 mM) | réponse mélanique: co-culture + MdC "ARG-free" irradiée par UVB ([2]; substance 0,48 mM) | réponse mélanique: co-culture + MdC "ARG = 84mg/L" irradiée par UVB ([2]; substance 0,48 mM) | réponse mélanique: co-culture + MdC "ARG = 84mg/L" sans irradiation ([2]; substance 0,48 mM)
N=C(N)NCCC[C@H](N)C(=O)O [L-arginine] | 1,5 (±0,2)x10^9 M^-1.S^-1 |  |  |  |  |  |  |  |  | 
N[C@@H](Cc1c[nH]cn1)C(=O)O [L-histidine, reference compound] | 2,5 (±0,2)x10^9 M^-1.S^-1 |  |  |  |  |  |  |  |  | 
CCOC(=O)[C@H](CCCNC(=N)N)NC(=O)C(CCSC)NC(C)=O (stereo partly drawn) [NAc-(D,L)-MET-L-ARG-OEt, N-acetyl-(D ou L)methionyl-L-arginine ethyl ester] (Ac-[ξM]-Arg-OEt) | 0,7 (±0,2)x10^10 M^-1.S^-1 |  |  |  |  |  |  |  |  | 
CCOC(=O)[C@@H](NC(=O)[C@H](CCCNC(=N)N)NC(C)=O)[C@@H](C)CC [NAc-L-ARG-L-ILE-OEt, N-acetyl-L-arginyl-(D ou L)-isoleucine ethyl ester] (Ac-Arg-Ile-OEt) | 6,1 (±0,4)x10^9 M^-1.S^-1 |  |  |  |  |  |  |  |  | 
CCOC(=O)[C@H](CCCNC(=N)N)NC(C)=O [NAc-L-ARG-OEt, N-acetyl-L-arginine ethyl ester] | 5,2 (±0,2)x10^9 M^-1.S^-1 | 30,7 | 39,5 | 23,1 | 37,5 | 42,6 | 20,9 | 43,8 | 38,4 | 24,4
CCOC(=O)[C@H](CCCNC(=N)N)NC(=O)[C@H](Cc1c[nH]cn1)NC(C)=O [NAc-L-HIS-L-ARG-OEt, N-acetyl-(D ou L)-histidyl-L-arginine ethyl ester] (Ac-His-Arg-OEt) | 9,0 (±0,2)x10^9 M^-1.S^-1 | 38,8 | 41,6 | 22,7 | 41,0 | 36,2 | 22,5 | 42,5 | 40,7 | 18,8
CCOC(=O)[C@H](CCCNC(=N)N)NC(=O)[C@H](Cc1ccc(O)cc1)NC(C)=O [NAc-L-TYR-L-ARG-OEt, N-acetyl-L-tyrosyl-L-arginine ethyl ester] | 8,1 (±0,3)x10^9 M^-1.S^-1 |  |  |  |  |  |  |  |  | 
